Test in all cases: DTP human tumour cell line panel, 48 h
In assay [1] the test system is K-562 leukemia.
Assay [2] relates to SNB-75 CNS.
Assay [3] concerns M14 melanoma.
The test system of assay [4] is A549 NSCLC.
Assay [5] has as its system TK-10 renal.
In assay [6] the test system is T-47D breast.
For assay [7], the system named is HOP-92 NSCLC.
The subject of assay [8] is CAKI-1 renal.
The subject of assay [9] is MDA-MB-231 breast.
The test system of assay [10] is EKVX NSCLC.

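48-hour exposure; five concentrations; linearly interpolated endpoints. Abbreviation: GI50, concentration required for 50% inhibition of growth. TGI is the concentration that stops growth completely.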 A value given as a limit tells only on which side of the number the result lay.

For orientation: GI50 means the concentration giving 50% growth inhibition. In general, TGI refers to the concentration giving total growth inhibition. A low value points to greater sensitivity of the cells. As to `Cn1ncnc1C1c2n[nH]c(=O)c3cc(F)cc(c23)NC1c1ccc(F)cc1` (stereo not given), the GI50 is over 100 µM in assay [1]; 9.8 µM in assay [2]; 3.52 µM in assay [3]; 7.9 µM in [4]; over 34.2 µM in [5]; over 100 µM in assay [6]. Besides, the GI50 is 39.9 µM in assay [7], 9.37 µM in assay [8] and over 100 µM in assay [9]. The TGI in assay [1], in [2], in assay [3], in assay [4], in [5] and in [6] was over 100 µM throughout. Besides, the total growth inhibition concentration (TGI) in assay [7], in assay [8] and in assay [9] was over 100 µM throughout.

On to `O=C1NC(c2ccccc2)N=C2Oc3ccccc3C=C12` (stereo not given), for which the TGI in [1] was over 100 µM; in assay [3] it was over 31.6 µM; in assay [4], over 100 µM; in assay [5], over 100 µM; in [10], over 100 µM; in [6], over 100 µM. In addition, the total growth inhibition concentration (TGI) in [7] is over 100 µM; in [8], 0.42 µM; in assay [9], over 31.6 µM.

As to `COC1OC(C(C)O)C2OC(C)(C)OC12` (stereo not given), the TGI in assay [1], in assay [2], in assay [3], in assay [4], in assay [5] and in assay [10] was over 100 µM in each case. In addition, the TGI in assay [6], in assay [8] and in [9] was over 100 µM throughout.

`Nc1ccccc1C#C/C=C\C#Cc1ccccc1F`: the GI50 in assay [1] was 3.38 µM; in assay [3] it was 5.39 µM; in assay [4], 10 µM; in assay [5], 6.42 µM; in [10], 10.8 µM; in assay [6] it was 8.05 µM. For the same compound, the GI50 in assay [7] was 17.9 µM; in [8] it was 2.89 µM; in assay [9], 10.1 µM. For the same compound, the concentration for total growth inhibition (TGI) in assay [1] is over 100 µM; in [3], 18.3 µM; in assay [4] it was 95.8 µM; in assay [5], 25.6 µM; in [10], 53.2 µM; in [6] it was over 100 µM. Also, the TGI in assay [7] was over 100 µM; in assay [8], 9.36 µM; in assay [9], 25.4 µM.

Turning to `O=C(NC1C=Nc2ccccc2NC1=O)c1ccccc1Cl` (stereo not given), the TGI in assay [1] is 52.7 µM; in assay [2], over 100 µM; in assay [3], over 100 µM; in assay [4], over 100 µM; in assay [5], over 100 µM; in assay [10] it was over 100 µM. The TGI in assay [7] and in assay [8] was over 100 µM in each case.

On to `COc1ccc(OC)c(/C=N/N=C2\C(=O)Nc3c(Cl)cc(Cl)cc32)c1`, for which the TGI in assay [1] was over 100 µM; in [2], 19.7 µM; in assay [3] it was over 100 µM; in assay [4] it was over 100 µM; in assay [5], over 100 µM; in [10] it was over 100 µM. For the same compound, the concentration for total growth inhibition (TGI) in [7], in assay [8] and in assay [9] was over 100 µM throughout.

For `CC(C)c1cccc(C(C)C)c1NC(=O)C(=O)C1SC(=S)NC1=O` (stereo not given), the total growth inhibition concentration (TGI) in [1], in assay [2], in assay [3], in assay [4], in assay [5] and in assay [10] was over 100 µM in each case. In addition, the TGI in assay [7] and in [8] was over 100 µM each time.

As for `COc1cc2c(cc1OCCCCCn1c3ccccc3c3ccccc31)N=C[C@@H]1CCCN1C2=O`, the GI50 in assay [2] is 1.05 µM; in [4], 1.57 µM; in assay [5], 2.25 µM; in assay [10] it was 5.27 µM; in [6] it was 2.79 µM; in [8], 1.93 µM. In addition, the GI50 in assay [9] was 1.73 µM. Moreover, the TGI in assay [2] came out at 2.58 µM; in assay [4] it was 3.02 µM; in [5], 4.84 µM; in [10], 18.7 µM; in assay [6] it was 9.24 µM; in assay [8], 4.58 µM. Also, the TGI in assay [9] is 3.69 µM.

Take `O=C1NN=CN2C(=O)CCC12` (stereo not given): the total growth inhibition concentration (TGI) in assay [1], in [2], in assay [3], in assay [4], in assay [5] and in assay [10] was over 100 µM in each case. Further, the TGI in [7] and in assay [8] was over 100 µM throughout.

On to `CCOC(=O)/C=C1\Oc2ccccc2C1(C)O` (stereo not given), for which the TGI in [1], in assay [2], in [3], in [4], in [5] and in assay [10] was over 100 µM in each case. Further, the concentration for total growth inhibition (TGI) in [7] and in assay [8] was over 100 µM each time.

For the compound `CCOC(=O)c1cn(CC)c2cc3c(cc2c1=O)SCS3`, the concentration for total growth inhibition (TGI) in assay [1], in assay [2], in [3], in assay [4], in assay [5] and in [10] was over 100 µM throughout. Besides, the TGI in assay [7] and in assay [8] was over 100 µM in each case.

`COc1ccc2c(c1OC)C(=O)O[C@@H]2[C@H]1c2c(c(Br)c3c(c2OC)OCO3)CCN1C`: the GI50 in [1] is 2.73 µM; in assay [2], 93.3 µM; in [3] it was 3.3 µM; in assay [4], 8.57 µM; in assay [5], 14.4 µM; in assay [10], 41.8 µM. The values for the GI50 in assay [6], in assay [7] and in assay [8] were 80.5 µM, 21.7 µM and 4.22 µM, respectively. In addition, the TGI in [1] is over 100 µM; in [2], over 100 µM; in [3], 25 µM; in [4], over 100 µM; in assay [5], 94.5 µM; in assay [10], over 100 µM. The concentration for total growth inhibition (TGI) was over 100 µM in assay [6], over 100 µM in assay [7] and 37.5 µM in [8].

These data come from PubChem BioAssay (NCI).
